Experimental data from ChEMBL document CHEMBL4806963, “Antagonistic peptides for frizzled-1 and frizzled-2” (2013).
Calls of active or inactive are those of the source. No cut-off for these calls is given here. Where a SMILES comes first, the peptide text is derived from it.

Tests used:
[1] = molecular target: Frizzled-2 (Rattus norvegicus) (UniProt Q08464); assay: Agonist activity at rat frizzled-2 expressed in human HEK293superTOP flash cells by luciferase reporter gene assay; type: cell-based; conditions: HEK293
Frizzled-2 (Rattus norvegicus), sequence (Q08464 29-570 limits assumed): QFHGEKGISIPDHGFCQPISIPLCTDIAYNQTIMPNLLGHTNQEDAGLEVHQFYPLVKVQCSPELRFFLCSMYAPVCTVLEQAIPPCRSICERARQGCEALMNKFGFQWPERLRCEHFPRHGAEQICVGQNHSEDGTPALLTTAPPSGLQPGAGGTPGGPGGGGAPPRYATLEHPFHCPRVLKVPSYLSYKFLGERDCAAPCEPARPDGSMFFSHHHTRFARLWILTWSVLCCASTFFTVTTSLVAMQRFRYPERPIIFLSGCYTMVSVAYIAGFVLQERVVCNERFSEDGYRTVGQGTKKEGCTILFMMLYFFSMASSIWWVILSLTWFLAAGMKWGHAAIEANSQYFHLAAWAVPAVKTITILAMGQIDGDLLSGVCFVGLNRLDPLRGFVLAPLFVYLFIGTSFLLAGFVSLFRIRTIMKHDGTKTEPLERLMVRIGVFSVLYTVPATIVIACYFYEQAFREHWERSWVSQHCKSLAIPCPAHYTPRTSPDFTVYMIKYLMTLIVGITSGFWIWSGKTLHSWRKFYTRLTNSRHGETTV

[2] = molecular target: Frizzled-5 (Homo sapiens) (UniProt Q13467); assay: Antagonist activity at Wnt3a-stimulaed frizzled-5 (unknown origin) expressed in human HEK293superTOP flash cells incubated for 24 hrs by luciferase reporter gene assay; type: functional, cell-based; conditions: HEK293
Frizzled-5 (Homo sapiens), sequence (Q13467 whole entry): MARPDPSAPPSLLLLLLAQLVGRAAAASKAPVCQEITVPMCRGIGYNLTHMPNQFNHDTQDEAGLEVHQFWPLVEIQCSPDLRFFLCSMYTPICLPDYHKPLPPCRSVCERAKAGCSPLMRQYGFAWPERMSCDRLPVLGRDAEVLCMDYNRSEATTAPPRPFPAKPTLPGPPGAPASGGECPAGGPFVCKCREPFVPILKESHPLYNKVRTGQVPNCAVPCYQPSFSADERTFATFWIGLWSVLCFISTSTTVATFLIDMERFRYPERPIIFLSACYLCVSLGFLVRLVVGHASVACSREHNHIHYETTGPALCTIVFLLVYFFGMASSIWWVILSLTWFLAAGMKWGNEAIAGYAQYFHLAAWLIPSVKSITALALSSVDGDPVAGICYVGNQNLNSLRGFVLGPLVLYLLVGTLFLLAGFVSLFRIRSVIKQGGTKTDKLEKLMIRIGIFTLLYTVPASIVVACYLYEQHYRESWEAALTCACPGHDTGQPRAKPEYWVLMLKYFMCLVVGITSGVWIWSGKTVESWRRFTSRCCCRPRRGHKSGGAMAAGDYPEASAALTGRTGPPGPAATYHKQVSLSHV

[3] = molecular target: Frizzled-1 (Homo sapiens) (UniProt Q9UP38); assay: Antagonist activity at frizzled-1 (unknown origin) expressed in rat C-FIT cells assessed as inhibition of Wnt5a-stimulated cell differentiation changes by measuring alpha-smooth muscle actin gene expression at 10 nM by quantitative RT-PCR analysis; type: functional, cell-based; conditions: filed as antagonist
Frizzled-1 (Homo sapiens), sequence (Q9UP38 70-647 limits assumed): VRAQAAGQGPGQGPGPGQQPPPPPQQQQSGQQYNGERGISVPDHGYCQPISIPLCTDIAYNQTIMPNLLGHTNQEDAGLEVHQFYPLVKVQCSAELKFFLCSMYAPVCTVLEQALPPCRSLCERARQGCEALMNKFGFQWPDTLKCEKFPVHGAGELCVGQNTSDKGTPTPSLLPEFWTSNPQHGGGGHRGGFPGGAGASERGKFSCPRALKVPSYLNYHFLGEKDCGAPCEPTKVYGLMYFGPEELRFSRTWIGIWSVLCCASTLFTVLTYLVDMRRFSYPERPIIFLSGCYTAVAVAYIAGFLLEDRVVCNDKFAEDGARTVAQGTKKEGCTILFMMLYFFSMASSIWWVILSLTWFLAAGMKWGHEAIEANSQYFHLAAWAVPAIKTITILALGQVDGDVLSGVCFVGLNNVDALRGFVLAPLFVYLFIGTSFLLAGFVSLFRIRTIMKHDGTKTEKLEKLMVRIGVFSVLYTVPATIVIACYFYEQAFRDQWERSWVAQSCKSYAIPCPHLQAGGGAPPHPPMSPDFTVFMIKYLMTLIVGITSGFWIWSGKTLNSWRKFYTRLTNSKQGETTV

[4] = system: Mus musculus; assay: Cardioprotective activity against myocardial infarction Swiss mouse model assessed as increase in amount of blood vessels in heart at 6 ug/kg/day, sc via osmotic pumps for 5 weeks by immunohistochemical staining analysis; type: functional, organism-based; conditions: dose 6.0 µg/kg/day
[5] = molecular target: Frizzled-1 (Rattus norvegicus) (UniProt Q08463); assay: Antagonist activity at Wnt3a-stimulated rat frizzled-1 expressed in African green monkey COS7 cells incubated for 24 hrs by luciferase reporter gene assay relative to control; type: cell-based; conditions: filed as antagonist, concentration not given here
Frizzled-1 (Rattus norvegicus), sequence (Q08463 whole entry): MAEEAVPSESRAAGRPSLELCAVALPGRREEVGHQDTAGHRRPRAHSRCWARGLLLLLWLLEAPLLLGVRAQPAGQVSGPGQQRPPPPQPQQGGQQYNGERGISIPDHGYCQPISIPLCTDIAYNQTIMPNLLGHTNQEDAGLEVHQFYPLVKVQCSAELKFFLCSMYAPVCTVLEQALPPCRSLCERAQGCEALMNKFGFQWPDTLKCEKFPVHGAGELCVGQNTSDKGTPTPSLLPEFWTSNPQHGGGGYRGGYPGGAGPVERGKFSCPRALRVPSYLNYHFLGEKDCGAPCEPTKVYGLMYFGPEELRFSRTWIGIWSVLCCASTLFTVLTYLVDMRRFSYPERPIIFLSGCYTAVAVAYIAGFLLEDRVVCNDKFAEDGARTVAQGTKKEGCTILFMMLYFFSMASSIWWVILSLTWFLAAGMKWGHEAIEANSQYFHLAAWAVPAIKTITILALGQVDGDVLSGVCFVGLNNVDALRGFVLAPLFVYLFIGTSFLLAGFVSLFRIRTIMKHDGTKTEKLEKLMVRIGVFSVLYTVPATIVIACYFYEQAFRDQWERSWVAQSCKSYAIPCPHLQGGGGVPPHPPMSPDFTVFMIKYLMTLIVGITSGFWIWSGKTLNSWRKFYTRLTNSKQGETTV

[6] = molecular target: Frizzled-2 (Homo sapiens) (UniProt Q14332); assay: Antagonist activity at frizzled-2 (unknown origin) expressed in rat C-FIT cells assessed as inhibition of Wnt5a-stimulated cell differentiation changes by measuring alpha-smooth muscle actin gene expression at 10 nM by quantitative RT-PCR analysis; type: functional, cell-based; conditions: filed as antagonist
Frizzled-2 (Homo sapiens), sequence (Q14332 24-565 limits assumed): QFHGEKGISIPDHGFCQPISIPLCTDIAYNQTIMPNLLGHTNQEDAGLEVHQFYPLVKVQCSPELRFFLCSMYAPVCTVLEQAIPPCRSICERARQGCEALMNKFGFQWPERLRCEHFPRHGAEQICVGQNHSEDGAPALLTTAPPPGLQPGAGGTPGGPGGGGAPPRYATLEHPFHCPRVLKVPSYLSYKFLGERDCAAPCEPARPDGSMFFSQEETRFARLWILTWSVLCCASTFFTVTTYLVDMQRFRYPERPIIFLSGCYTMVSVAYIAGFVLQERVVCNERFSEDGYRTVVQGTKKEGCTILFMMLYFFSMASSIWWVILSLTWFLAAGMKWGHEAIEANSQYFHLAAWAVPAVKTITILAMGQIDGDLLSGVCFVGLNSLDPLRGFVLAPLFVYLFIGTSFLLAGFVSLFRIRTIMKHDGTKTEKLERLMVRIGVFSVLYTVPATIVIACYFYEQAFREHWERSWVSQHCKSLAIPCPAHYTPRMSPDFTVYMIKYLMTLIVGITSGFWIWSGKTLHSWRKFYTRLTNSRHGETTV

[7] = system: Mus musculus; assay: Cardioprotective activity against myocardial infarction Swiss mouse model assessed as reduction in collagen level in infarct area at 6 ug/kg/day, sc via osmotic pumps for 5 weeks by immunohistochemical staining analysis; type: functional, organism-based; conditions: dose 6.0 µg/kg/day
[8] = molecular target: Frizzled-2 (Rattus norvegicus) (UniProt Q08464); assay: Agonist activity at rat frizzled-2 expressed in African green monkey COS7 cells by luciferase reporter gene assay; type: cell-based
[9] = molecular target: Frizzled-1 (Rattus norvegicus) (UniProt Q08463); assay: Agonist activity at rat frizzled-1 expressed in African green monkey COS7 cells by luciferase reporter gene assay; type: cell-based
[10] = molecular target: Frizzled-1 (Rattus norvegicus) (UniProt Q08463); assay: Antagonist activity at rat frizzled-1 expressed in rat C-FIT cells assessed as inhibition of Wnt3a-stimulated blockade of migration at 10 nM incubated for 48 hrs and measured for 24 hrs following the scratch by scratch wound healing assay; type: cell-based; conditions: filed as antagonist, time 72.0 hrs
[11] = molecular target: Frizzled-1 (Mus musculus) (UniProt O70421); assay: Antagonist activity at Wnt3a-stimulaed mouse frizzled-1 expressed in human HEK293superTOP flash cells incubated for 24 hrs by luciferase reporter gene assay; type: cell-based; conditions: HEK293, filed as antagonist
Frizzled-1 (Mus musculus), sequence (O70421 whole entry, looked up): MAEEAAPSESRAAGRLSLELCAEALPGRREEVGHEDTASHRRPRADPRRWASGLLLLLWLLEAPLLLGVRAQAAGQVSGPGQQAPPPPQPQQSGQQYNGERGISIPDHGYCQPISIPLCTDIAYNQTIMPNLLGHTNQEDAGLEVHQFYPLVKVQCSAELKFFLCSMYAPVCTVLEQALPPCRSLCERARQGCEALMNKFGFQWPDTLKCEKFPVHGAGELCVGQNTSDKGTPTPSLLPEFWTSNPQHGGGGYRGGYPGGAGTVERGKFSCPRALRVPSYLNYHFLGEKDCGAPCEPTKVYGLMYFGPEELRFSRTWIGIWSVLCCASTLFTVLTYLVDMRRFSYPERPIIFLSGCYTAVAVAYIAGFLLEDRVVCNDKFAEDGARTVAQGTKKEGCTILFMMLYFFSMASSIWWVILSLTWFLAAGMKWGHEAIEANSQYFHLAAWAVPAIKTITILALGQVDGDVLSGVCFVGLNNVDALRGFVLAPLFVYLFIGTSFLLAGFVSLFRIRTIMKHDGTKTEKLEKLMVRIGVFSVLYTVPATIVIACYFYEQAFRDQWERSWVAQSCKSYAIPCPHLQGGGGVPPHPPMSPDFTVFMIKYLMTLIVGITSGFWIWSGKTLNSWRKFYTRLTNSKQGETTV

[12] = molecular target: Frizzled-1 (Rattus norvegicus) (UniProt Q08463); assay: Agonist activity at rat frizzled-1 expressed in human HEK293superTOP flash cells by luciferase reporter gene assay; type: cell-based; conditions: HEK293
[13] = molecular target: Frizzled-1 (Homo sapiens) (UniProt Q9UP38); assay: Antagonist activity at frizzled-1 (unknown origin) expressed in rat C-FIT cells assessed as inhibition of Wnt3a-stimulated cell differentiation changes by measuring alpha-smooth muscle actin gene expression at 10 nM by quantitative RT-PCR analysis; type: functional, cell-based; conditions: filed as antagonist
[14] = molecular target: Frizzled-2 (Homo sapiens) (UniProt Q14332); assay: Antagonist activity at Wnt3a-stimulaed human frizzled-2 expressed in human HEK293superTOP flash cells incubated for 24 hrs by luciferase reporter gene assay; type: functional, cell-based; conditions: HEK293, filed as antagonist
[15] = molecular target: Frizzled-1 (Rattus norvegicus) (UniProt Q08463); assay: Agonist activity at rat frizzled-1 expressed in CHO cells by luciferase reporter gene assay; type: cell-based
[16] = system: Mus musculus; assay: Cardioprotective activity against myocardial infarction Swiss mouse model assessed as ventricular dilation at 6 ug/kg/day, sc via osmotic pumps for 5 weeks by macroscopic analysis; type: functional, organism-based; conditions: dose 6.0 µg/kg/day
[17] = species on record: Rattus norvegicus; assay: Selectivity index, ratio of IC50 for Wnt3a-stimulated rat frizzled-1 expressed in human HEK293superTOPFlash cells to IC50 for Wnt3a-stimulated rat frizzled-2 expressed in human HEK293superTOPFlash cells; type: cell-based
[18] = molecular target: Frizzled-1 (Rattus norvegicus) (UniProt Q08463); assay: Antagonist activity at Wnt3a-stimulated rat frizzled-1 expressed in human HEK293superTOP flash cells at 10 nM incubated for 24 hrs by luciferase reporter gene assay relative to control; type: cell-based; conditions: HEK293, filed as antagonist
[19] = molecular target: Frizzled-2 (Mus musculus) (UniProt Q9JIP6); assay: Antagonist activity at Wnt3a-stimulaed mouse frizzled-2 expressed in human HEK293superTOP flash cells incubated for 24 hrs by luciferase reporter gene assay; type: cell-based; conditions: HEK293, filed as antagonist
Frizzled-2 (Mus musculus), sequence (Q9JIP6 whole entry, looked up): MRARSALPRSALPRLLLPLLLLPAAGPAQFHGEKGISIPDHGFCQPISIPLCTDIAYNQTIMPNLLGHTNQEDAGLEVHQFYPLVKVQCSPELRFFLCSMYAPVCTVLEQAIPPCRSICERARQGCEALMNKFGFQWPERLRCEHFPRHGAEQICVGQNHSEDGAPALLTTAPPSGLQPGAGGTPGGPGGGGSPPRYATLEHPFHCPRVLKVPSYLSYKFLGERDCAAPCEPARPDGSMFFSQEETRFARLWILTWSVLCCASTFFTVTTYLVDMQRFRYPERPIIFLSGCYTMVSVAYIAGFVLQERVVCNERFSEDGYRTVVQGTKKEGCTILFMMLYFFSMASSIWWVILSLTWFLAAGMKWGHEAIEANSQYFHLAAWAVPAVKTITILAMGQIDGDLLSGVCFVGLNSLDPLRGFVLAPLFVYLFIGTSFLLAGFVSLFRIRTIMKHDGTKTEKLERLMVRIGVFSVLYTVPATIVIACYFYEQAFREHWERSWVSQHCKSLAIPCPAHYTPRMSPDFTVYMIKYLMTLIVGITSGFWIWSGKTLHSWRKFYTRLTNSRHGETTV

[20] = molecular target: Frizzled-1 (Homo sapiens) (UniProt Q9UP38); assay: Antagonist activity at Wnt3a-stimulaed frizzled-1 (unknown origin) expressed in human HEK293superTOP flash cells at 1 nM incubated for 24 hrs by luciferase reporter gene assay (reference value: 0%); type: functional, cell-based; conditions: HEK293, filed as antagonist
[21] = molecular target: T1, Frizzled-4 (Homo sapiens) (UniProt Q9ULV1); assay: Antagonist activity at Wnt3a-stimulaed human frizzled-4 expressed in human HEK293superTOP flash cells at 10 nM incubated for 24 hrs by luciferase reporter gene assay; type: functional, cell-based; conditions: HEK293
T1 sequence (whole entry): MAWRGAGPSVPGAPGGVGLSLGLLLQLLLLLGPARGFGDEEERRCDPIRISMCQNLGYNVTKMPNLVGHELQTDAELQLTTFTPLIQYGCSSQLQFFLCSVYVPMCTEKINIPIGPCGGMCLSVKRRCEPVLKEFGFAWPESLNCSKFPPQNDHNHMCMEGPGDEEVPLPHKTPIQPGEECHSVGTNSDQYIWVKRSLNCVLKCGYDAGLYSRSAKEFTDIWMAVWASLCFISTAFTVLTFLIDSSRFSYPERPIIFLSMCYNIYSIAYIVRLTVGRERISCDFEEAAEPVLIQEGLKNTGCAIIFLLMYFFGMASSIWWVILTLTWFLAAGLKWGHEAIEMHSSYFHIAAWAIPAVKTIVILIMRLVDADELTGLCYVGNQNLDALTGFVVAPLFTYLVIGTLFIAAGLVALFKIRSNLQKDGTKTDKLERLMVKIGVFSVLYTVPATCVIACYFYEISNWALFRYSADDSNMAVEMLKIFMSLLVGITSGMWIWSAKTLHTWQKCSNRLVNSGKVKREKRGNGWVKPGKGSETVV

[22] = system: Mus musculus; assay: Cardioprotective activity against myocardial infarction Swiss mouse model assessed as reduction in infarction expansion in heart at 6 ug/kg/day, sc via osmotic pumps for 5 weeks by macroscopic analysis; type: functional, organism-based; conditions: dose 6.0 µg/kg/day
[23] = system: Mus musculus; assay: Cardioprotective activity against myocardial infarction Swiss mouse model assessed as reduction in wet lung weight at 6 ug/kg/day, sc via osmotic pumps for 5 weeks; type: functional, organism-based; conditions: dose 6.0 µg/kg/day
[24] = system: Mus musculus; assay: Cardioprotective activity against myocardial infarction Swiss mouse model assessed as reduction in infarct area in heart at 6 ug/kg/day, sc via osmotic pumps for 2 to 5 weeks by immunohistochemical staining analysis; type: functional, organism-based; conditions: dose 6.0 µg/kg/day, time 2-5 weeks
[25] = molecular target: Frizzled-2 (Homo sapiens) (UniProt Q14332); assay: Antagonist activity at frizzled-2 (unknown origin) expressed in rat C-FIT cells assessed as inhibition of Wnt3a-stimulated cell differentiation changes by measuring alpha-smooth muscle actin gene expression at 10 nM by quantitative RT-PCR analysis; type: functional, cell-based; conditions: filed as antagonist
[26] = molecular target: Frizzled-2 (Homo sapiens) (UniProt Q14332); assay: Antagonist activity at Wnt3a-stimulaed frizzled-2 (unknown origin) expressed in human HEK293superTOP flash cells at 1 nM incubated for 24 hrs by luciferase reporter gene assay (reference value: 0%); type: functional, cell-based; conditions: HEK293, filed as antagonist
[27] = molecular target: Frizzled-5 (Homo sapiens) (UniProt Q13467); assay: Antagonist activity at Wnt3a-stimulaed human frizzled-5 expressed in human HEK293superTOP flash cells at 10 nM incubated for 24 hrs by luciferase reporter gene assay; type: functional, cell-based; conditions: HEK293
[28] = molecular target: T1, Frizzled-4 (Homo sapiens); assay: Antagonist activity at Wnt3a-stimulaed frizzled-4 (unknown origin) expressed in human HEK293superTOP flash cells incubated for 24 hrs by luciferase reporter gene assay; type: functional, cell-based; conditions: HEK293

Activity [1]: inactive
inhibition [2]: inactive
inhibition [3]: 100%
inhibition [5]: 100%
inhibition [6]: 100%
Activity [8]: inactive
Activity [9]: inactive
inhibition [10]: 100%
inhibition [11]: Active
Activity [12]: inactive
inhibition [13]: 100%
inhibition [14]: Active
Activity [15]: inactive
inhibition [18]: 100%
inhibition [19]: Active
inhibition [20]: 18%
inhibition [21]: inactive
inhibition [25]: 100%
inhibition [26]: 61.2%
inhibition [27]: inactive
inhibition [28]: inactive
SMILES: CSCC[C@H](NC(=O)CNC(=O)[C@H](CCC(=O)O)NC(=O)[C@H](CO)NC(=O)[C@@H](NC(=O)[C@H](CCCCN)NC(=O)[C@H](CC(N)=O)NC(=O)[C@H](CS)NC(C)=O)[C@@H](C)O)C(=O)N[C@@H](CC(=O)O)C(=O)NCC(=O)N[C@@H](CS)C(=O)N[C@@H](CCC(=O)O)C(=O)N[C@@H](CC(C)C)C(N)=O (Ac-CNKTSEGMDGCEL-NH2)
Activity [4]: Active
Activity [7]: Active
Activity [16]: Active
Ratio IC50 [17]: 100
Activity [22]: Active
Activity [23]: Active
Activity [24]: Active
